We go through 22 compounds from BindingDB's records for doi:10.1021/acsmedchemlett.7b00188 (Wuxi Apptec (Shanghai), 2017).

SMILES strings stand for the structures.

The test in a line: Inhibition of Enterovirus 71 Shenzhen/120F1/09 capsid infected in human RD cells assessed as reduction in virus-induced cell death after 72 hrs by CCK-8 assay.

Consider `Nc1cc(N2CCN(CCCCCOc3ccc(-c4ccc(Cl)cc4)cc3)S2(=O)=O)ccn1`, for which the EC50 amounted to 12 nM.

For the compound `O=C1N(CCCCC2CCc3cc(-c4ccc(Cl)cc4)ccc3O2)CCN1c1ccncc1` (configuration not stated), the EC50 was found to be 48 nM.

Consider `O=S1(=O)N(CCCCCOc2ccc(-c3ccc(Cl)cc3)cc2)CCN1c1ccncc1`, for which the EC50 turned out to be 110 nM. In the case of `S=C1N(CCCCCOc2ccc(-c3ccc(Cl)cc3)cc2)CCN1c1ccncc1` it was 2800 nM.

Regarding `O=C1CN(CCCCCOc2ccc(-c3ccc(Cl)cc3)cc2)CCN1c1ccncc1`, the EC50 amounted to 1200 nM.

As for `CCO/N=C1\CCc2cc(OCCCCCN3CCN(c4ccnc(N)c4)S3(=O)=O)ccc21`, the EC50 stood at 4 nM. As for `CCO/N=C(\C)c1ccc(OCCCCCN2CCN(c3ccnc(N)c3)S2(=O)=O)cc1`, the EC50 amounted to 600 nM. In the case of `CCO/N=C/c1ccc(OCCCCCN2CCN(c3ccnc(N)c3)S2(=O)=O)cc1` it was 0.9 nM; in that of `O=C1N(CCCCc2nc3cc(-c4ccc(Cl)cc4)ccc3o2)CCN1c1ccncc1`, 1100 nM; in that of `O=C1CC(CCCCN2CCN(c3ccncc3)C2=O)Oc2ccc(-c3ccc(Cl)cc3)cc21` (configuration not stated), 540 nM. `CCn1ccc2cc(OCCCCCN3CCN(c4ccnc(N)c4)S3(=O)=O)ccc21`: the EC50 was greater than 1000 nM. Turning to `CCc1noc2cc(OCCCCCN3CCN(c4ccnc(N)c4)S3(=O)=O)ccc12`, the EC50 was found to be 352 nM. In the case of `CCO/N=C/c1ccc(OCCC(C)CCN2CCN(c3ccnc(N)c3)C2=O)cc1` (configuration not stated) it was 0.03 nM; in that of `O=C1CN(c2ccncc2)CCN1CCCCCOc1ccc(-c2ccc(Cl)cc2)cc1`, 180 nM. As for `CCO/N=C(\CC)c1ccc(OCCCCCN2CCN(c3ccnc(N)c3)S2(=O)=O)cc1`, the figure is 554 nM; as for `O=C1N(CCCCc2cc3cc(-c4ccc(Cl)cc4)ccc3o2)CCN1c1ccncc1`, 1100 nM. As for `CCO/N=C1\CCCc2cc(OCCCCCN3CCN(c4ccnc(N)c4)S3(=O)=O)ccc21`, the figure is 309 nM. On to `CCn1ncc2cc(OCCCCCN3CCN(c4ccnc(N)c4)S3(=O)=O)ccc21`, for which the EC50 is greater than 1000 nM. As for `O=C1C(=O)N(c2ccncc2)CCN1CCCCCOc1ccc(-c2ccc(Cl)cc2)cc1`, the EC50 was greater than 1000 nM. As for `O=C1N(CCCCCOc2ccc(-c3ccc(Cl)cc3)cc2)CCN1c1ccncc1` [1-[5-(4''-Chloro-biphenyl-4-yloxy)-pentyl]-3-pyridin-4-yl-imidazolidin-2-one], the figure is 91 nM; as for `Cc1cc(CCCOc2c(C)cc(-c3noc(C(F)(F)F)n3)cc2C)on1` [3-(3,5-dimethyl-4-(3-(3-methylisoxazol-5-yl)propoxy)phenyl)-5-(trifluoromethyl)-1,2,4-oxadiazole], greater than 100000 nM; as for `NC(=O)c1ncn([C@@H]2O[C@H](CO)[C@@H](O)[C@H]2O)n1` [Tribavirin], greater than 100000 nM.
